Experimental data taken from patent US20260373233A1, “ISLET AMYLOID POLYPEPTIDE ISOFORMS AND PEPTIDES AND METHODS OF USE” (The United States of America, as represented by the …, priority 2022, published 2026).
Peptide text beside a SMILES is read from it.

Columns and labels:
[1] = biological target: T1, Aβ42 (Homo sapiens, UniProt P05067); experiment: Thioflavin T (ThT) Aβ42 fibrillation assay; format: biochemical; settings: linear range of 70-120 min; 50 μM Aβ42 with 50 μM inhibitory peptide; 37 °C; p<0.0001
T1 construct: ThT fibrillation assay
T1 sequence (P05067 672-713): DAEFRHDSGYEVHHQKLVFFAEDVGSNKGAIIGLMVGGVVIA
Method: Thioflavin T in vitro assay for IAPP and Ab amyloid formation: Thioflavin T (ThT) was from Millipore-Sigma (Cat #T3516, Rockville, MD). […] Black 96 well microplates (Chimney Well) were from Greiner Bio-One (Frickenhausen, Germany). […] The final concentration the monomeric peptides was 1% DMSO and 25 μM ThT in Component A buffer (AnaSpec Manual of SensoLyte Thioflavin T Aggregation Kit, Cat #AS-72214).
P<0.05 was considered significant and data were represented as means±SEM. […] For ThT amyloid dye assay, area under a curve (AUC) was calculated using the trapezoidal rule and the data were analyzed using one-way ANOVA with Tukey's multiple comparison correction. The ratio of means (±SEM) was calculated by propagation of error formula.

[2] = biological target: T2, IAPP37 (Homo sapiens, UniProt P10997); experiment: Thioflavin T (ThT) IAPP37 fibrillation assay; format: biochemical; settings: 37 °C; for IAPP aggregation dynamics (AUC of ThT fluorescence) with inhibitor, % of IAPP37 aggregation: linear range of 90-160 min, 50 μM IAPP37 with 50 μM inhibitory peptide, p=0.003
T2 construct: ThT fibrillation assay
T2 sequence (P10997 34-70): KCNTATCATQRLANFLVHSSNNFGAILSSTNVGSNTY
Method: (§1) Thioflavin T in vitro assay for IAPP and Ab amyloid formation: Thioflavin T (ThT) was from Millipore-Sigma (Cat #T3516, Rockville, MD). […] Black 96 well microplates (Chimney Well) were from Greiner Bio-One (Frickenhausen, Germany). C-terminal amidated IAPP25 and DNSP11 peptides were synthesized by GeneMed Synthesis Inc (San Antonio, TX). […] The final concentration […] 1% DMSO and 25 μM ThT in Component A buffer (AnaSpec Manual of SensoLyte Thioflavin T Aggregation Kit, Cat #AS-72214).
Statistical data analysis: GraphPad Prism v9 software was used for statistical analysis of RT-qPCR and SRM data and MetaboAnalyst v5.0 (metaboanalyst.ca/) was used for partial least squares-discriminant analysis (PLS-DA). P<0.05 was considered significant and data were represented as means±SEM. The normalized expression values of IAPP isoforms in TaqMan fold changes and ddPCR IAPP/GAPDH droplets, ELISA, and SRM quantitative values were analyzed with unpaired student t-test, Pearson correlation coefficient matrix. All statistical procedures for SRM biomarker discovery were carried out by using GraphPad Prism v9 software and MetaboAnalyst 5.0. Biomarker accuracies were calculated by area under the receiver operating characteristic curve (AUROC). For ThT amyloid dye assay, area under a curve (AUC) was calculated using the trapezoidal rule and the data were analyzed using one-way ANOVA with Tukey's multiple comparison correction. The ratio of means (±SEM) was calculated by propagation of error formula.
(§2) FIG. 10A is a representative experiment of three replicates showing IAPP37 aggregation dynamics with lag time of 90 min and inhibition by IAPP25 (derived from IAPP-γ) and DNSP11. […] ThT binding fluorescent intensity (F.I.) was transformed to area under curve (AUC) using the trapezoidal rule and the inhibitions were analyzed by one-way ANOVA with Tukey's multi-test correction.

[3] = ThT amyloid reporter binding assay of peptide alone
Method: as §1, §2

[4] = system: dopaminergic neurons; settings: animal models of Parkinson's disease; amidated DNSP11; cited from earlier work

| Compound | Aβ aggregation dynamics (AUC of ThT fluorescence) with inhibitor, % of Aβ42 aggregation [1] [%] | IAPP aggregation dynamics (AUC of ThT fluorescence) with inhibitor, % of IAPP37 aggregation [2] [%] | binding to ThT amyloid reporter [3] | protection of dopaminergic neurons [4] | lag time of IAPP37 aggregation ([2]; IAPP37, representative experiment of three replicates) [min] |
| --- | --- | --- | --- | --- | --- |
| CC[C@H](C)[C@H](NC(=O)[C@H](CCC(N)=O)NC(=O)[C@H](Cc1c[nH]c2ccccc12)NC(=O)[C@H](C)NC(=O)[C@H](CO)NC(=O)[C@H](CCCNC(=N)N)NC(=O)[C@H](CCC(N)=O)NC(=O)[C@@H](NC(=O)[C@H](Cc1c[nH]cn1)NC(=O)[C@@H]1CCCN1C(=O)[C@H](CC(C)C)NC(=O)[C@@H](NC(=O)[C@H](C)NC(=O)[C@H](CC(N)=O)NC(=O)CNC(=O)[C@H](CO)NC(=O)[C@H](CCCCN)NC(=O)[C@H](Cc1c[nH]c2ccccc12)NC(=O)[C@H](CCCNC(=N)N)NC(=O)[C@@H](NC(=O)[C@@H](NC(=O)[C@H](CCCCN)NC(=O)[C@H](CO)NC(=O)[C@@H](N)CCCCN)C(C)C)[C@@H](C)CC)[C@@H](C)O)C(C)C)C(=O)N[C@@H](Cc1ccccc1)C(N)=O [IAPP25] (H-KSKVIRWKSGNATLPHVQRSAWQIF-NH2) | 50.6 | 25.0 | did not bind | – | – |
| CC(C)C[C@H](NC(=O)[C@H](CO)NC(=O)[C@H](CCCNC(=N)N)NC(=O)[C@H](CC(=O)O)NC(=O)[C@H](CCC(=O)O)NC(=O)[C@H](C)NC(=O)[C@@H]1CCCN1C(=O)[C@H](C)NC(=O)[C@H](CCC(=O)O)NC(=O)[C@@H]1CCCN1C(=O)[C@@H]1CCCN1)C(N)=O [DNSP11] (H-PPEAPAEDRSL-NH2) | 62.9 | 24.1 | did not bind | protective to dopaminergic neurons | – |
| KCNTATCATQRLANFLVHSSNNFGAILSSTNVGSNTY [IAPP37, mature human IAPP, 37-AA peptide (AnaSpec Cat #AS-60254-1), reference compound] | – | – | – | – | 90 |
